Results on ten compounds are retold here after ChEMBL document CHEMBL5465560, “Selectivity Literature for EUbOPEN Chemogenomic Library” (2024).

The structures appear in SMILES notation.

Test [1] addresses High affinity nerve growth factor receptor (Homo sapiens, UniProt P04629). As to the kind of experiment: Selectivity interaction (Kinase panel (Z-LYTE Assay)) EUB0001632a NTRK1. The note with it: at 10 µM.
In test [2] the target is T1, Serine/threonine-protein kinase Sgk3 (Homo sapiens) (UniProt Q96BR1).
T1 sequence (whole entry): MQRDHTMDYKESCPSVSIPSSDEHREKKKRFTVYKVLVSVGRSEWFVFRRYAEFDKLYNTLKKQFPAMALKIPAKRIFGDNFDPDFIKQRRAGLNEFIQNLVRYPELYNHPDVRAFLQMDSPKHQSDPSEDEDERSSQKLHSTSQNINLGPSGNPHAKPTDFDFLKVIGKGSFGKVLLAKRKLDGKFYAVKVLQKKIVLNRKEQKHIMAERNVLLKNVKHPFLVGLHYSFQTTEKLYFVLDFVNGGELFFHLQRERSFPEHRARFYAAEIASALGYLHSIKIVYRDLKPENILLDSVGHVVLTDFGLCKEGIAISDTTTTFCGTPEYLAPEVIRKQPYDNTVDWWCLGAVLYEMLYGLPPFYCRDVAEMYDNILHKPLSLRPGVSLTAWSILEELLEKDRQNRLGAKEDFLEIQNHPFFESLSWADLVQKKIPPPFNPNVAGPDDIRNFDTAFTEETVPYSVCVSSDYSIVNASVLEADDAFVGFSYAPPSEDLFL
Description: Selectivity interaction (Kinase panel (KiNativ target engagement assay in Jurkat cells)) EUB0001635a SGK3. Conditions: at 1 µM. The class given is cell-based.

In test [3] the target is Mitogen-activated protein kinase 8 (Homo sapiens, UniProt P45983). As to the kind of experiment: Selectivity interaction (Kinase panel (KiNativ target engagement assay in Jurkat cells)) EUB0001635a MAPK8. The note with it: at 1 µM. The class given is cell-based.
Sequence of Mitogen-activated protein kinase 8 (P45983 whole entry): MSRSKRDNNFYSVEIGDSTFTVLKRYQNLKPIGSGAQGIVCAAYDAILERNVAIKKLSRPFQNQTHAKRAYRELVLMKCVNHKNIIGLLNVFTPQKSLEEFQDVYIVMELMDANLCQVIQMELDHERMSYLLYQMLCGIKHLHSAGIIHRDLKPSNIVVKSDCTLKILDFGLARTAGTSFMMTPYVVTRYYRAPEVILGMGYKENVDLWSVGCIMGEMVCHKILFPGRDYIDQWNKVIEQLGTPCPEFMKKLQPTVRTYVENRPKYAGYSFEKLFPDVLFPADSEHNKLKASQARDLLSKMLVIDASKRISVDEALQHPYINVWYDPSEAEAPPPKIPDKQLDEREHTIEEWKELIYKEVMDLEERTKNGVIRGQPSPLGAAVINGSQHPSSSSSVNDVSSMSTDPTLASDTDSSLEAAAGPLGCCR
For test [4], the target named is Leucine-rich repeat serine/threonine-protein kinase 2 (Homo sapiens, UniProt Q5S007). As to the kind of experiment: (§1) Selectivity interaction (Ambit KINOMEscan and KiNATiv profiling in Jurkat cells) EUB0000090b LRRK2. The class given is cell-based. Conditions: at 1 µM.
The test system of test [5] is Leucine-rich repeat serine/threonine-protein kinase 2 (Homo sapiens), Q5S007 [G2019S]. Described as §1. The note with it: at 1 µM. The class given is cell-based.
In test [6] the target is Cyclin-dependent kinase 5/CDK5 activator 1 (Homo sapiens) (UniProt Q00535+Q15078). As to the kind of experiment: Selectivity interaction (SelectScreen profiling (Invitrogen)) EUB0000607a CDK5. The note with it: at 2 µM. The class given is protein-complex assay.
Sequence of Cyclin-dependent kinase 5/CDK5 activator 1 (Homo sapiens) (Q00535 whole entry): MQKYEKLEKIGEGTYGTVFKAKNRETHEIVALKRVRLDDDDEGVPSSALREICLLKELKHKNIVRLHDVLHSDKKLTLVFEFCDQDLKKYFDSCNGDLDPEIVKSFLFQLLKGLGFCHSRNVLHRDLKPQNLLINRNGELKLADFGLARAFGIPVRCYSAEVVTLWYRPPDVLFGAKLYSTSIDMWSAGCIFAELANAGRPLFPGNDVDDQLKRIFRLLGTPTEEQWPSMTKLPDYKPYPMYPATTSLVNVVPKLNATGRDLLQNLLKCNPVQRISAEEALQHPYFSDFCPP
Sequence of Cyclin-dependent kinase 5/CDK5 activator 1 (Homo sapiens) (Q15078 99-307 partner limits assumed): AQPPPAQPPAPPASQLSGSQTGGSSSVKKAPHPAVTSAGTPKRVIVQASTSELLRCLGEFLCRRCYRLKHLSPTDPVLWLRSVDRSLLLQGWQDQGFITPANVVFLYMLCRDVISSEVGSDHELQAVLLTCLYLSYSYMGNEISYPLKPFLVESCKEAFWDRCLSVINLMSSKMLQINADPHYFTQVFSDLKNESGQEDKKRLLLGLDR
Test [7] concerns the target Receptor-interacting serine/threonine-protein kinase 2 (Homo sapiens, UniProt O43353). As to the kind of experiment: Selectivity interaction (Competition-binding assay (DiscoverX)) EUB0000229b RIPK2.
Test [8] concerns the target Mitotic checkpoint serine/threonine-protein kinase BUB1 (Homo sapiens, UniProt O43683). Description: Selectivity interaction (KinomeScan (DiscoverX)) EUB0001079a BUB1. Conditions: at 1 µM.
Test [9] has as its target Ribosomal protein S6 kinase alpha-5 (Homo sapiens) (UniProt O75582). Description: Selectivity interaction (KinomeScan (DiscoverX)) EUB0001619a RPS6KA5. Conditions: at 1 µM.
Test [10] has as its target Tyrosine-protein kinase Fyn (Homo sapiens) (UniProt P06241). Description: Selectivity interaction (ActivX KiNativ screen (kinase selectivity in THP-1 cell lysates)) EUB0000639a FYN. The class given is subcellular. Conditions: lysate, at 1 µM.
For test [11], the target named is CDK9/cyclin T1 (Homo sapiens) (UniProt O60563+P50750). As to the kind of experiment: Selectivity interaction (Kinase panel (Invitrogen)) EUB0000639a CDK9. It counts as protein-complex assay. The note with it: at 200 nM.
In test [12] the target is T2, Phosphatidylinositol 3-kinase C2 domain-containing subunit gamma (Homo sapiens) (UniProt O75747).
T2 sequence (whole entry): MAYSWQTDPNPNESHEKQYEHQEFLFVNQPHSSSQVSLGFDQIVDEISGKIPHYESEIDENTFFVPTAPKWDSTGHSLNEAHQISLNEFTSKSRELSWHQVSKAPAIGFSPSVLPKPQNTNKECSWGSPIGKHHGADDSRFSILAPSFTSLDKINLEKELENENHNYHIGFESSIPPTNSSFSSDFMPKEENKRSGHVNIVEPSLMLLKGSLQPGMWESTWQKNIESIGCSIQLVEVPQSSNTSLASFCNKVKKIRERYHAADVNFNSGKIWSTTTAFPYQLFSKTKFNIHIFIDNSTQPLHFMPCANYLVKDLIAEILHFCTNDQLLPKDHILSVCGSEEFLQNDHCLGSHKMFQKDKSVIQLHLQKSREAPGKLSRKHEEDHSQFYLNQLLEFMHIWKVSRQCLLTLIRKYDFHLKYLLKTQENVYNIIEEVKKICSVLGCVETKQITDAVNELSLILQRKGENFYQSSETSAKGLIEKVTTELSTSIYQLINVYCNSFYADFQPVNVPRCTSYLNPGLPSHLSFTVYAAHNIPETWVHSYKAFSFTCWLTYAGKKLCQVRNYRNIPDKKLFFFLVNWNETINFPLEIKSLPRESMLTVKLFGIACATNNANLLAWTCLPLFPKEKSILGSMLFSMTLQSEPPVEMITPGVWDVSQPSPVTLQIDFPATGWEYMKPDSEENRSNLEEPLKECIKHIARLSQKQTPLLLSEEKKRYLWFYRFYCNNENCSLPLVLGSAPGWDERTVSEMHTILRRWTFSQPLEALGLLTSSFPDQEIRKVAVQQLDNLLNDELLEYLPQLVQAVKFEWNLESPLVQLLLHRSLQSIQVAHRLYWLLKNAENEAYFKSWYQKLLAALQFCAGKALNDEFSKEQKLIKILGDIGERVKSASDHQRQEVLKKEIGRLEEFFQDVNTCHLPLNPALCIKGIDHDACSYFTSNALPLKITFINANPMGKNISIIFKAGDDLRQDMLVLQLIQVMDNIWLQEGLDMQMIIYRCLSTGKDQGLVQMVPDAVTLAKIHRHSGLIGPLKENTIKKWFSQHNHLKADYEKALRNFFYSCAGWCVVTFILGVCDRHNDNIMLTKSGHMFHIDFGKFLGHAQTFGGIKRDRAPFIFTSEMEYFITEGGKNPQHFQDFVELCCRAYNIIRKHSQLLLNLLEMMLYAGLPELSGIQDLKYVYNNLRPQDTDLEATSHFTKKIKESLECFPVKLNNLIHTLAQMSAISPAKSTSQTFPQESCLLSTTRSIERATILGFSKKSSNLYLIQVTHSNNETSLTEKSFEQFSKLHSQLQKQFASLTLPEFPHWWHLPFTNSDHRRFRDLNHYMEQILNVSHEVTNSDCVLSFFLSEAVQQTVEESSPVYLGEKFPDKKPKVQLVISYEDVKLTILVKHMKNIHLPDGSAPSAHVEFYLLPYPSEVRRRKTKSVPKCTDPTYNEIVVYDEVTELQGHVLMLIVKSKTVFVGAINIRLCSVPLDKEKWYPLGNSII
Description: Selectivity interaction (KinomeScan (DiscoverX)) EUB0001049a PIK3C2G. The note with it: at 1 µM.

Test [13] concerns the target Serine/threonine-protein kinase 16 (Homo sapiens, UniProt O75716). As to the kind of experiment: Selectivity interaction (ProQinase) EUB0000171b STK16.

Sequence of Serine/threonine-protein kinase 16 (O75716 whole entry): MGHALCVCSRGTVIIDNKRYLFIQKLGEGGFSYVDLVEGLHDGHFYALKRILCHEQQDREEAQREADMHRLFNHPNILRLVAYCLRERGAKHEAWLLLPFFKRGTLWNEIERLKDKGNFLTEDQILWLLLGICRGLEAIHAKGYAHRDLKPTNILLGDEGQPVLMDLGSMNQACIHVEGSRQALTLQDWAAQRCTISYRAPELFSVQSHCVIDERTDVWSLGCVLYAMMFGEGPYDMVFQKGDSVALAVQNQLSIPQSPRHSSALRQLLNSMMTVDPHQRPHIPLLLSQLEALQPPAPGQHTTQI
Sequence of Mitotic checkpoint serine/threonine-protein kinase BUB1 (O43683 whole entry, looked up): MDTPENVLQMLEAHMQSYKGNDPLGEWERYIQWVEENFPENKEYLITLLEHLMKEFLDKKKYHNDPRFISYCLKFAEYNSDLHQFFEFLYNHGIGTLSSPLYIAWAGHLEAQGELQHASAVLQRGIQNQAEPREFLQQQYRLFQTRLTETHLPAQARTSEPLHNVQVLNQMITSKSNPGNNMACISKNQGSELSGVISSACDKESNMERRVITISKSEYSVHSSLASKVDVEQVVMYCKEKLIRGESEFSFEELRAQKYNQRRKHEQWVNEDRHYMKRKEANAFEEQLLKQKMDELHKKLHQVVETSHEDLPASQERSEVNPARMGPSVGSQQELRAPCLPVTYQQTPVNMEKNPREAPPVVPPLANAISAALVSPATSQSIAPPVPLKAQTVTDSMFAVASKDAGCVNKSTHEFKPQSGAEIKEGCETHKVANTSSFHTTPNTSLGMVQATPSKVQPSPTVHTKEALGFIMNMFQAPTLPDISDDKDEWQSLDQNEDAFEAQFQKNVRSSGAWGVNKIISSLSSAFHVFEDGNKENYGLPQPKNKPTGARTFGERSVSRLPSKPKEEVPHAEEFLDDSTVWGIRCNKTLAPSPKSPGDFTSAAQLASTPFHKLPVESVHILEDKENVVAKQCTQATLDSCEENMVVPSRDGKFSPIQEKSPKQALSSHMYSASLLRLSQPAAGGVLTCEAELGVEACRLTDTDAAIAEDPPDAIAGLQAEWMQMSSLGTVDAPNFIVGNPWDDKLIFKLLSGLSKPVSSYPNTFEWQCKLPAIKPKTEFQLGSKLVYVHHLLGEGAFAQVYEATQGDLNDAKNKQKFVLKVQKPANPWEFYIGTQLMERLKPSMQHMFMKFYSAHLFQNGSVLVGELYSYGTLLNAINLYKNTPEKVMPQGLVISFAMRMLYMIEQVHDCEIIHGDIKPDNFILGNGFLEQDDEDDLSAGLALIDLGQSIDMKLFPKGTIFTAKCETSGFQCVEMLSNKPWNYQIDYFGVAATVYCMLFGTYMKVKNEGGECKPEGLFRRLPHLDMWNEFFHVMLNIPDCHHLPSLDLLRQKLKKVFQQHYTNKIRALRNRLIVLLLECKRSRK
Sequence of Tyrosine-protein kinase Fyn (Homo sapiens) (P06241 2-537 limits assumed): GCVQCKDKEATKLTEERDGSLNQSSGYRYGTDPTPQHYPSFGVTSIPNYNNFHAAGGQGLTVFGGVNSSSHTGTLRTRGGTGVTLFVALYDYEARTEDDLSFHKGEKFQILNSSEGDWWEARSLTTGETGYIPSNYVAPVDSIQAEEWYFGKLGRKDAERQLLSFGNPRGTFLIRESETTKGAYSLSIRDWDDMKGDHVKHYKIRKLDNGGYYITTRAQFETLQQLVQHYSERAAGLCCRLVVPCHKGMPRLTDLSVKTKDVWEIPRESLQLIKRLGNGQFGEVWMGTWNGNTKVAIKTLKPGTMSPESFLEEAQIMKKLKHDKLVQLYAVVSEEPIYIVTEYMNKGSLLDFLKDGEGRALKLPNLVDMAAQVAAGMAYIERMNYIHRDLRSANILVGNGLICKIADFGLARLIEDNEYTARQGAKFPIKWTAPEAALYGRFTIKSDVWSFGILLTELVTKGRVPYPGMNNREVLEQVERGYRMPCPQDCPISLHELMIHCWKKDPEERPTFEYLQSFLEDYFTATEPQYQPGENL
Sequence of Ribosomal protein S6 kinase alpha-5 (Homo sapiens) (O75582 whole entry, looked up): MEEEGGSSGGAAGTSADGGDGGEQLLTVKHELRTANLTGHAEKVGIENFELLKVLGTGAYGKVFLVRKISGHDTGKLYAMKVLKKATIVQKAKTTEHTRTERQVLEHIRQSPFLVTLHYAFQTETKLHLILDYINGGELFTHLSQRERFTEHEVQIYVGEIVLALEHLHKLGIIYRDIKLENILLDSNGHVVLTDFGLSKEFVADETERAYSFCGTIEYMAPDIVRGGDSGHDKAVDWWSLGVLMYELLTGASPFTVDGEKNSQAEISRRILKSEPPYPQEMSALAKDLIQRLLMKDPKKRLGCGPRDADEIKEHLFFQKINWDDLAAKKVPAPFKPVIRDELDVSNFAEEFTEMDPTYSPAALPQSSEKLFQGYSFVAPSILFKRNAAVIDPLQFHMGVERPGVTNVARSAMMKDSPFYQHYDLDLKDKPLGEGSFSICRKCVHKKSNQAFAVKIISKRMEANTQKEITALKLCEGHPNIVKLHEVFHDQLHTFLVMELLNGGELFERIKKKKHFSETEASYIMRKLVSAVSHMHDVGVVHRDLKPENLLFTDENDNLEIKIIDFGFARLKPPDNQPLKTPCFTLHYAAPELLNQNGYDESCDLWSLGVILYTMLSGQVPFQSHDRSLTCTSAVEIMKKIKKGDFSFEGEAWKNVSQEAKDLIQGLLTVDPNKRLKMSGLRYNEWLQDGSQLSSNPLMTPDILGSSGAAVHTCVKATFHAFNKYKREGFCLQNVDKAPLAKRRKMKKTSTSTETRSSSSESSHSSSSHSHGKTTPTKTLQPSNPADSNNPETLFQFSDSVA
Sequence of High affinity nerve growth factor receptor (P04629 33-796 limits assumed): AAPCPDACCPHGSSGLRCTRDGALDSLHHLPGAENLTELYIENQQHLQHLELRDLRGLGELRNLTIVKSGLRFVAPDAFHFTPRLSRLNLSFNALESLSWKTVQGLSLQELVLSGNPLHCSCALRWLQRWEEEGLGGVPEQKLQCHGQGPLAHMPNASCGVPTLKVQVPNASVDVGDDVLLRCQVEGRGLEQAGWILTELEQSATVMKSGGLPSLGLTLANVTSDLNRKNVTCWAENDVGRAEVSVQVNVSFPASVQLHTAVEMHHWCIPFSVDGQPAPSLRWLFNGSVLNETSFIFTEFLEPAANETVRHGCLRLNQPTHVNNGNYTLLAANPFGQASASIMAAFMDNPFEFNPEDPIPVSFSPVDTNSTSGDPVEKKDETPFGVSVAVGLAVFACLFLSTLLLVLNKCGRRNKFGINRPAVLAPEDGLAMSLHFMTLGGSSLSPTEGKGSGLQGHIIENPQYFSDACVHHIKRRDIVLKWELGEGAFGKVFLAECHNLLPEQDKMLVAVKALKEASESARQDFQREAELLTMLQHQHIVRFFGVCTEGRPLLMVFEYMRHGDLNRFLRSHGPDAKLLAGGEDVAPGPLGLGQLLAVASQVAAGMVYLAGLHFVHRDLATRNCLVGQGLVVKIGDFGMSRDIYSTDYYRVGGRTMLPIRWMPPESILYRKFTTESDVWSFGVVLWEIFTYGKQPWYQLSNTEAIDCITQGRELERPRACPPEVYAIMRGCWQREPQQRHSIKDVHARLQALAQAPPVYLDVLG
Sequence of Receptor-interacting serine/threonine-protein kinase 2 (O43353 whole entry): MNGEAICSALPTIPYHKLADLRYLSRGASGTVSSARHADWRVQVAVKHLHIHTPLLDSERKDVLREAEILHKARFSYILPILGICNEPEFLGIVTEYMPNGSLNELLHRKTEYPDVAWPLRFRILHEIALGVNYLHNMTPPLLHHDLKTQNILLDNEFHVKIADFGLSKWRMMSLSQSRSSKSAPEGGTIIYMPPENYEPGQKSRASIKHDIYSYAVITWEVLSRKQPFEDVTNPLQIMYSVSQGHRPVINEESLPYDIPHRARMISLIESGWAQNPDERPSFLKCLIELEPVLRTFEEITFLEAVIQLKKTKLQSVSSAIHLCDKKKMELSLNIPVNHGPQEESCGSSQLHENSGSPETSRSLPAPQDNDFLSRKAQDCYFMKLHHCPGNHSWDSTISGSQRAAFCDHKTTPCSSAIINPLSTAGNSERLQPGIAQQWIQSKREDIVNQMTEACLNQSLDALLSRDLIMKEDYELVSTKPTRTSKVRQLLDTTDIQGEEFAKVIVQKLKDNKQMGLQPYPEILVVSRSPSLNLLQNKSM

With `Cn1cc(-n2cnc3c(NCc4nc5cc(Cl)c(Cl)cc5[nH]4)nc(N4CCOCC4)nc32)cn1`, the % of control in test [1] was -5.4%.

On to `C=CC(=O)Nc1ccc(C(=O)Nc2[nH]nc3c2CN(C(=O)N[C@H](CN(C)C)c2ccccc2)C3(C)C)cc1`, for which the % of engagement was 15.8% in test [2] (Selectivity number of off-targets 0.0, Selectivity number of targets 233.0, Source Knowledge https://www.sciencedirect.com/science/article/pii/S2451945619300674?via%3Dihub); 6.4% in test [2]; -7.2% in test [3].

As for `CN(C)C/C=C/C(=O)Nc1ccc(C(=O)N2CCCC(Nc3ncc(Cl)c(-c4c[nH]c5ccccc45)n3)C2)cc1` (stereo not given), the % of control in test [4] was determined as 84%; in test [5], 92%.

Turning to `CNC(=O)Nc1ccc(-c2nc(N3CC4CCC(C3)O4)c3cnn(C4CCC5(CC4)OCCO5)c3n2)cc1`, the % of inhibition in [6] is -4%.

The compound `COc1cc(N(C)c2ccnc3ccc(C(F)(F)F)cc23)cc(OC)c1OC` yielded a Kd in test [7] of 4.9 µM.

With `Nc1cnc(N2CCc3cc(S(=O)(=O)Nc4c(F)cc(Cl)cc4F)cc(N4CCCC4=O)c32)nc1` [TP-020n], in test [8], the % of control came to 100%.

Regarding `N#Cc1cccc(-c2c[nH]c3ncnc(N4CCOCC4)c23)c1`, the % of control in test [9] turned out to be 100%.

With `CC[C@@H]1[C@H](F)C(=O)N[C@@H]1COc1nccc2cc(C(N)=O)c(OC)cc12` [ZIMLOVISERTIB], the % of inhibition in test [10] is -11%; in [11], 3.66%.

Turning to `COc1cc(Nc2nc(C)cc(-c3cnn4nc(OC)ccc34)n2)cc(C(F)(F)F)c1`, the % of control in test [12] was determined as 89%.

Take `C=CC(=O)Nc1cccc(C(=O)Nc2ccc(Nc3cc(-c4[nH]c(SC)nc4C)ccn3)cc2)c1`: the % of control in [13] (at 1 µM) is 23%; in test [13] (at 5 µM) it was 6%.

Broadly, the Kd is the free concentration of one partner at which half of the binding sites on the other are occupied at equilibrium, for simple one-to-one binding.
